Test results as given in patent US20120309739A1, “AKT / PKB INHIBITORS” (ALMAC DISCOVERY LIMITED, priority 2009, published 2012).
Structures can show the parent of a compound that is named as a salt.

Tests used:
Format in all cases: biochemical
[1] = biological target: T1, AKT1 (Homo sapiens, UniProt P31749); test: AKT Kinase Assay (IMAP fluorescent polarisation) vs AKT1; settings: activated AKT1, FAM Crosstide substrate
T1 construct: purchased SignalChem
Method: (§1) Testing of the compounds was performed using an AKT Kinase Assay:
(§2) Activated AKT isoforms 1, 2 and 3 were assayed utilising a 5′ FAM Crosstide (Seq. GRPRTSSFAEG-OH). The extent of kinase phosphorylation was determined by fluorescent polarisation using IMAP progressive binding reagent, which introduces binding beads which allow the reagent to specifically bind to phosphate residues via covalent co-ordination complex bonds.
(§3) iMAP binding solution stops Crosstide/kinase interaction and specifically binds phosphorylated substrates. The degree of phosphorylation is determined by fluorescent polarisation (excitation 485 nm; emission 528 nm) or the reduction in speed of rotation of the excited substrate.
(§4) The following materials were used in the assay: • a) Activated AKT isoforms (SignalChem.) dissolved in Complete Reaction buffer at a pre-determined concentration selected so that the assay was carried out in the linear range. • b) AKT substrate peptide: FAM Crosstide (R7110) Molecular Devices, diluted in complete reaction buffer. • c) iMAP Progressive Screening Express Kit (R8127) Molecular Devices • d) Complete Reaction Buffer containing 0.1% BSA, 10 mM Tris-HCl, 10 mM MgCl2, 0.05% NaN3 and 0.01% phosphate free BSA, 1 mM DTT • e) Progressive Binding Solution containing 75% Buffer A, 25% Buffer B and low volume Binding Reagent which contains the binding entity for the assay • f) ATP diluted in complete reaction buffer • g) Black polystyrene 384 well assay plates (Nunc). • h) Biotek Synergy 4 Hybrid Plate reader.
(§5) 50 μl of test compound was dissolved in DMSO (Sigma Aldrich) and serially diluted in complete reaction buffer to give a fourteen point half log dose response and plated into 384 well black plates. The compound was incubated at room temperature with activated AKT isoform ([…]) at the pre-determined concentration, for 45 minutes.
(§6) […] of ATP solution mixed with 2.5 μl of AKT substrate peptide (FAM Crosstide (R7110) Molecular Devices) were dispensed into each well and the plate centrifuged at 1000 rpm for 20 seconds to ensure homogenous mixing of reagents. The reaction mix was incubated in the dark for one hour at room temperature.
(§7) The kinase reaction was stopped by the addition of Progressive Binding Solution and the mixture allowed to equilibrate for one hour in the dark, at room temperature.
(§8) The fluorescent polarisation generated in each well was determined using a […] Synergy 4 Hybrid plate reader. In brief, each reaction solution was excited at 485 nm with the emission measured at 528 nm in both the parallel and perpendicular pathway.
(§9) The polarisation value generated in each well was calculated by Gen5 software (Biotek) and the % inhibition of kinase activity compared to vehicle control was calculated via GraphPad Prism. IC50 values for each compound were calculated by non-linear regression analysis using Prism software.
(§10) All plates were internally controlled by two methods. Firstly, by calculating the signal:noise ratio; based on kinase polarisation without inhibitor and polarisation generated by complete reaction buffer in the absence of activated kinase. Secondly by determining IC50 values generated by known inhibitors of the AKT isoforms.

[2] = biological target: T2, AKT2 (Homo sapiens, UniProt P31751); test: AKT Kinase Assay (IMAP fluorescent polarisation) vs AKT2; settings: activated AKT2, FAM Crosstide substrate
T2 construct: purchased SignalChem
Method: as §1, §2, §3, §4, §5, §6, §7, §8, §9, §10

[3] = biological target: T3, AKT3 (Homo sapiens, UniProt Q9Y243); test: AKT Kinase Assay (IMAP fluorescent polarisation) vs AKT3; settings: activated AKT3, FAM Crosstide substrate
T3 construct: purchased SignalChem
Method: as §1, §2, §3, §4, §5, §6, §7, §8, §9, §10

T1 sequence (P31749 whole entry): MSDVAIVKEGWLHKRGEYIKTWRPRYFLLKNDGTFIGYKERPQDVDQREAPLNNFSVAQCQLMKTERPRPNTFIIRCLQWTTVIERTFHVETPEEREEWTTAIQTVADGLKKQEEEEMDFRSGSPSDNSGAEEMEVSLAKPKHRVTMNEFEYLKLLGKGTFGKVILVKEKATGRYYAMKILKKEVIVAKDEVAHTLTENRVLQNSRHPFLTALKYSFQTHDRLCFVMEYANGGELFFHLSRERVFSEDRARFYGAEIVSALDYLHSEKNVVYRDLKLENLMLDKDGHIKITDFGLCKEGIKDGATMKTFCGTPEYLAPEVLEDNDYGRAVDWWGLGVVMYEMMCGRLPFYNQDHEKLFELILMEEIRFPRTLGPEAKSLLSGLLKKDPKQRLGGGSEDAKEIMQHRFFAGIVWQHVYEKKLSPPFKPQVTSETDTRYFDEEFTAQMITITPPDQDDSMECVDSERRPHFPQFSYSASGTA
T3 sequence (Q9Y243 whole entry): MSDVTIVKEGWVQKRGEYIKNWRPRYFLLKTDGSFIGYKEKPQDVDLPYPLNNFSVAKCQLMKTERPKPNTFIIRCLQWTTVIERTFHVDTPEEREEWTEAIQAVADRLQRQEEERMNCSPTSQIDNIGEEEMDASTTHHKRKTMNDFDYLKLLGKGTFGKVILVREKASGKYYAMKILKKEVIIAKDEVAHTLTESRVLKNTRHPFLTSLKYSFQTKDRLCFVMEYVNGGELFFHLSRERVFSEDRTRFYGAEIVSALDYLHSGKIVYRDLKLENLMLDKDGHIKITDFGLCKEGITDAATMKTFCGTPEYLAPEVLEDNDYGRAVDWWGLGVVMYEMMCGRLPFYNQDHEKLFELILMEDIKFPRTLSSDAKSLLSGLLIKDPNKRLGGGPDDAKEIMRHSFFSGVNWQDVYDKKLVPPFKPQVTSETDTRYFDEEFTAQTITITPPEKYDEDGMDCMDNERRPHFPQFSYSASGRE
T2 sequence (P31751 whole entry): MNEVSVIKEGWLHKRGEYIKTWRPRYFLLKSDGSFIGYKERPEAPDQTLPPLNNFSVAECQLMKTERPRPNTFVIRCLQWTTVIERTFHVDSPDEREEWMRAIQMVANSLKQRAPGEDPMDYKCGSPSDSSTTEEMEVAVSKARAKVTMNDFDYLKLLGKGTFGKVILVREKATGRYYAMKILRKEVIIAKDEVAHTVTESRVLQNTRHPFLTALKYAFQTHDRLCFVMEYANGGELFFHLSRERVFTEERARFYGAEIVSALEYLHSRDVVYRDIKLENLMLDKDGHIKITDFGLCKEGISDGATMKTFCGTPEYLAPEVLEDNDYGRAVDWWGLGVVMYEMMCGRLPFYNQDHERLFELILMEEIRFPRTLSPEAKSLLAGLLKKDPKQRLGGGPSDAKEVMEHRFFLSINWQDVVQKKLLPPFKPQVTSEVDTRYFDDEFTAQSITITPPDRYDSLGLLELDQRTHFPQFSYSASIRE

IC50 [1] [µM] | IC50 [2] [µM] | IC50 [3] [µM] | Compound
> 10 | 1 to 10 | > 10 | NC1(c2ccc(-c3oc4cnccc4c3-c3ccccc3)cc2)CCC1 [Example 2, 1-(4-(3-Phenylfuro[2,3-c]pyridin-2-yl)phenyl)cyclobutanamine]
1 to 10 | 1 to 10 | 1 to 10 | NC1(c2ccc(-c3oc4cnccc4c3I)cc2)CCC1 [Example 3, 1-(4-(3-Iodofuro[2,3-c]pyridin-2-yl)phenyl)cyclobutanamine]
0.1 to 1 | 1 to 10 | > 10 | Cn1ccc2oc(-c3ccc(C4(N)CCC4)cc3)c(-c3ccccc3)c2c1=O [Example 4, 2-(4-(1-Aminocyclobutyl)phenyl)-5-methyl-3-phenylfuro[3,2-c]pyridin-4(5H)-one]
1 to 10 | 1 to 10 | > 10 | NC(=O)c1ccc2c(-c3ccccc3)c(-c3ccc(C4(N)CCC4)cc3)oc2c1 [Example 5, 2-(4-(1-Aminocyclobutyl)phenyl)-3-phenylbenzofuran-6-carboxamide]
1 to 10 | 1 to 10 | > 10 | N#Cc1ccc2oc(-c3ccc(C4(N)CCC4)cc3)c(-c3ccccc3)c2c1 [Example 6, 2-(4-(1-Aminocyclobutyl)phenyl)-3-phenylbenzofuran-5-carbonitrile]
0.1 to 1 | 0.1 to 1 | > 10 | NC(=O)c1ccc2oc(-c3ccc(C4(N)CCC4)cc3)c(-c3ccccc3)c2c1 [Example 7, 2-(4-(1-Aminocyclobutyl)phenyl)-3-phenylbenzofuran-5-carboxamide]
1 to 10 | 1 to 10 | > 10 | N#Cc1cccc2c(-c3ccccc3)c(-c3ccc(C4(N)CCC4)cc3)oc12 [Example 8, 2-(4-(1-Aminocyclobutyl)phenyl)-3-phenylbenzofuran-7-carbonitrile]
1 to 10 | 1 to 10 | > 10 | NC(=O)c1cccc2c(-c3ccccc3)c(-c3ccc(C4(N)CCC4)cc3)oc12 [Example 9, 2-(4-(1-Aminocyclobutyl)phenyl)-3-phenylbenzofuran-7-carboxamide.2HCl]
> 10 | > 10 | > 10 | NC1(c2ccc(-c3oc4ncc(Br)cc4c3-c3ccccc3)cc2)CCC1 [Example 11, 1-(4-(5-Bromo-3-phenylfuro[2,3-b]pyridin-2-yl)phenyl)cyclobutanamine.HCl]
1 to 10 | 0.1 to 1 | 1 to 10 | COc1nc(N2CCOCC2)nc2oc(-c3ccc(C4(N)CCC4)cc3)c(-c3ccccc3)c12 [Example 13, 1-(4-(4-Methoxy-2-morpholino-5-phenylfuro[2,3-d]pyrimidin-6-yl)phenyl)cyclobutanamine]
0.1 to 1 | 0.1 to 1 | 1 to 10 | COc1nc(NCCN(C)C)nc2oc(-c3ccc(C4(N)CCC4)cc3)c(-c3ccccc3)c12 [Example 14, N^1-(6-(4-(1-Aminocyclobutyl)phenyl)-4-methoxy-5-phenylfuro[2,3-d]pyrimidin-2-yl)-N^2,N^2-dimethylethane-1,2-diamine]
1 to 10 | 0.1 to 1 | 1 to 10 | NC1(c2ccc(-c3sc4nc[nH]c(=O)c4c3-c3ccccc3)cc2)CCC1 [Example 16, 6-(4-(1-Aminocyclobutyl)phenyl)-5-phenylthieno[2,3-d]pyrimidin-4(3H)-one]
1 to 10 | 1 to 10 | > 10 | COc1nccc2oc(-c3ccc(C4(N)CCC4)cc3)c(-c3ccccc3)c12 [Example 17, 1-(4-(4-Methoxy-3-phenylfuro[3,2-c]pyridin-2-yl)phenyl)cyclobutanamine]
0.1 to 1 | 1 to 10 | > 10 | NC1(c2ccc(-c3oc4cc[nH]c(=O)c4c3-c3ccccc3)cc2)CCC1 [Example 18, 2-(4-(1-Aminocyclobutyl)phenyl)-3-phenylfuro[3,2-c]pyridin-4(5H)-one]
> 10 | > 10 | > 10 | NC1(c2ccc(-c3oc4ncccc4c3-c3ccccc3)cc2)CCC1 [Example 19, 1-(4-(3-Phenylfuro[2,3-b]pyridin-2-yl)phenyl)cyclobutanamine]
1 to 10 | 1 to 10 | > 10 | NC1(c2ccc(-c3oc4ncncc4c3-c3ccccc3)cc2)CCC1 [Example 20, 1-(4-(5-Phenylfuro[2,3-d]pyrimidin-6-yl)phenyl)cyclobutanamine]
1 to 10 | 1 to 10 | > 10 | NC1(c2ccc(-c3oc4ncc([N+](=O)[O-])cc4c3-c3ccccc3)cc2)CCC1 [Example 21, 1-(4-(5-Nitro-3-phenylfuro[2,3-b]pyridin-2-yl)phenyl)cyclobutanamine]
1 to 10 | 1 to 10 | > 10 | Nc1cnc2oc(-c3ccc(C4(N)CCC4)cc3)c(-c3ccccc3)c2c1 [Example 22, 2-(4-(1-Aminocyclobutyl)phenyl)-3-phenylfuro[2,3-b]pyridin-5-amine]
> 10 | > 10 | > 10 | NC1(c2ccc(-c3c(-c4ccccc4)oc4cccnc34)cc2)CCC1 [Example 23, 1-(4-(2-Phenylfuro[3,2-b]pyridin-3-yl)phenyl)cyclobutanamine]
1 to 10 | 1 to 10 | > 10 | N#Cc1ccc2c(-c3ccccc3)c(-c3ccc(C4(N)CCC4)cc3)oc2c1 [Example 25, 2-(4-(1-Aminocyclobutyl)phenyl)-3-phenylbenzofuran-6-carbonitrile]
0.1 to 1 | 1 to 10 | > 10 | COc1nc(N(C)C)nc2oc(-c3ccc(C4(N)CCC4)cc3)c(-c3ccccc3)c12 [Example 26, 6-(4-(1-Aminocyclobutyl)phenyl)-4-methoxy-N,N-dimethyl-5-phenylfuro[2,3-d]pyrimidin-2-amine]
0.1 to 1 | 0.1 to 1 | 1 to 10 | COc1nc(N2CC(CN)C2)nc2oc(-c3ccc(C4(N)CCC4)cc3)c(-c3ccccc3)c12 [Example 27, 1-(4-(2-(3-(Aminomethyl)azetidin-1-yl)-4-methoxy-5-phenylfuro[2,3-d]pyrimidin-6-yl)phenyl)cyclobutanamine]
> 10 | 1 to 10 | > 10 | NC1(c2ccc(-c3oc4ncc(N5CCOCC5)cc4c3-c3ccccc3)cc2)CCC1 [Example 28, 1-(4-(5-Morpholino-3-phenylfuro[2,3-b]pyridin-2-yl)phenyl)cyclobutanamine]
1 to 10 | 1 to 10 | > 10 | NC1(c2ccc(-c3oc4ccccc4c(=O)c3-c3ccccc3)cc2)CCC1 [Example 29, 2-[4-(1-Amino-cyclobutyl)-phenyl]-3-phenyl-chromen-4-one hydrogen chloride*]
0.1 to 1 | > 10 | > 10 | N#Cc1cccc2c(-c3ccccc3)c(-c3ccc(C4(N)CNC4)cc3)oc12 [Example 30, 2-(4-(3-Aminoazetidin-3-yl)phenyl)-3-phenylbenzofuran-7-carbonitrile]
≤ 0.1 | 0.1 to 1 | > 10 | COc1nc(N)nc2oc(-c3ccc(C4(N)CCC4)cc3)c(-c3ccccc3)c12 [Example 31, 6-(4-(1-Aminocyclobutyl)phenyl)-4-methoxy-5-phenylfuro[2,3-d]pyrimidin-2-amine]
